Reference: US9266878B2, “Phosphatidylinositol 3-kinase inhibitors” (Gilead Calistoga LLC, priority 2012, dated 2016)

Key:
Assay in all cases: Enzymatic activity of PI3K isoforms, TR-FRET assay (PIP3 formation)
Format in all cases: biochemical
[1] = molecular target: PI3Kδ (Homo sapiens (Human), UniProt O00329); conditions: bound given in nM
Summary of the method: (§1)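 Heterodimeric recombinant class I PI3K; PIP3 product displaces labeled PIP3 from GRP-1 PH domain, lowering TR-FRET. Reaction 30 min at 25° C, stopped with 10 mM EDTA, 10 nM labeled-PIP3, 35 nM Eu-GRP-1. Read Ex 340 nm, Em 615/665 nm; IC50 in nM.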

[2] = molecular target: PI3Kα (Homo sapiens (Human), UniProt P42336)
Sequence of PI3Kα (P42336 whole entry): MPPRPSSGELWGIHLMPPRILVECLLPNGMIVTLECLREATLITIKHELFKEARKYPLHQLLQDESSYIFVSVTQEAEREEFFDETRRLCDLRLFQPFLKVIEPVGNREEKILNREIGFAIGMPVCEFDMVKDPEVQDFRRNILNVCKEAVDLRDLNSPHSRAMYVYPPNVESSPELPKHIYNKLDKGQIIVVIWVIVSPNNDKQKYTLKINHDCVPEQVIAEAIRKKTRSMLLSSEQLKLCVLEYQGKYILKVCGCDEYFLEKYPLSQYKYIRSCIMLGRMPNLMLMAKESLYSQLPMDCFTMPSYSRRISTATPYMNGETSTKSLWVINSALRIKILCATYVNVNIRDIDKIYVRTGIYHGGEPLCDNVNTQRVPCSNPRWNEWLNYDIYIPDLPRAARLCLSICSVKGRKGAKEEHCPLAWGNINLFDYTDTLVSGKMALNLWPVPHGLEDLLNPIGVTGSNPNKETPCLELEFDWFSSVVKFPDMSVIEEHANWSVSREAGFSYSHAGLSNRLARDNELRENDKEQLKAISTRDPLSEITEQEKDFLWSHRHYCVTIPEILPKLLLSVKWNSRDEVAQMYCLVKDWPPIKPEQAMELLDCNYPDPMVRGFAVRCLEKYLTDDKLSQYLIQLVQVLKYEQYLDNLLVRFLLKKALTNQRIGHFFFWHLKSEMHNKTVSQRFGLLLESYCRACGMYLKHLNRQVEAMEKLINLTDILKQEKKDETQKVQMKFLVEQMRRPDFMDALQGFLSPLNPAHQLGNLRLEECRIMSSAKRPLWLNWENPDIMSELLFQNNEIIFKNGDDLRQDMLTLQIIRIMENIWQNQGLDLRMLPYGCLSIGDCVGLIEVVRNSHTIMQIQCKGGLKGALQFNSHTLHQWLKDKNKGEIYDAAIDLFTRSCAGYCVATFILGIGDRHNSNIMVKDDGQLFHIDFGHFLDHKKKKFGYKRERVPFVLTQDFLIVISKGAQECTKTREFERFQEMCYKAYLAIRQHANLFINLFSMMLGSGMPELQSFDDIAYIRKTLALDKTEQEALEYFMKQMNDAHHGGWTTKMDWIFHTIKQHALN
Sequence of PI3Kα (P27986 whole entry partner): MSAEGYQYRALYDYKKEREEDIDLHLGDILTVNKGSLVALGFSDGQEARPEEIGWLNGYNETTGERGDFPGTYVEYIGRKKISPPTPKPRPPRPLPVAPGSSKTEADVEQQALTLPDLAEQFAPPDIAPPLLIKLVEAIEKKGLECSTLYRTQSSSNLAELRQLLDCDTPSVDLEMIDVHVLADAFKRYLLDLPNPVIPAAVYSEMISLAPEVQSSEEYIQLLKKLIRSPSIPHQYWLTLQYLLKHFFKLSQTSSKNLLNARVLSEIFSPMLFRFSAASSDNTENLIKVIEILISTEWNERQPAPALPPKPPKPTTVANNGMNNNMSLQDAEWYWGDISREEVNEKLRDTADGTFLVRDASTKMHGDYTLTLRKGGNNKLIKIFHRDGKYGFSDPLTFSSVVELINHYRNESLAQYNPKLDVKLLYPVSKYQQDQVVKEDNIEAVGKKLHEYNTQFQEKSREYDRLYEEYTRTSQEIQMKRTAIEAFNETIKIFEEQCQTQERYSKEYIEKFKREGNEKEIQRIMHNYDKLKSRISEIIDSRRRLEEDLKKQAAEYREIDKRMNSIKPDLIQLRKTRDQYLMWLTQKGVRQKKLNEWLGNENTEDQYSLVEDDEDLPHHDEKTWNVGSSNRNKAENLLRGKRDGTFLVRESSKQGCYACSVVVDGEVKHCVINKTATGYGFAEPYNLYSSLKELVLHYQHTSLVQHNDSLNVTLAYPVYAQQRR
Summary of the method: as §1

[3] = molecular target: PI3Kγ (Homo sapiens (Human), UniProt P48736)
Summary of the method: (§2)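 Recombinant heterodimeric class I PI3K enzymes were assayed by TR-FRET. PIP3 product displaces fluorescently labelled PIP3 from the GRP-1 PH domain, lowering the signal; IC50 values are given in nM.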

[4] = molecular target: PI3Kβ (Homo sapiens (Human), UniProt P42338)
Sequence of PI3Kβ (P42338 whole entry): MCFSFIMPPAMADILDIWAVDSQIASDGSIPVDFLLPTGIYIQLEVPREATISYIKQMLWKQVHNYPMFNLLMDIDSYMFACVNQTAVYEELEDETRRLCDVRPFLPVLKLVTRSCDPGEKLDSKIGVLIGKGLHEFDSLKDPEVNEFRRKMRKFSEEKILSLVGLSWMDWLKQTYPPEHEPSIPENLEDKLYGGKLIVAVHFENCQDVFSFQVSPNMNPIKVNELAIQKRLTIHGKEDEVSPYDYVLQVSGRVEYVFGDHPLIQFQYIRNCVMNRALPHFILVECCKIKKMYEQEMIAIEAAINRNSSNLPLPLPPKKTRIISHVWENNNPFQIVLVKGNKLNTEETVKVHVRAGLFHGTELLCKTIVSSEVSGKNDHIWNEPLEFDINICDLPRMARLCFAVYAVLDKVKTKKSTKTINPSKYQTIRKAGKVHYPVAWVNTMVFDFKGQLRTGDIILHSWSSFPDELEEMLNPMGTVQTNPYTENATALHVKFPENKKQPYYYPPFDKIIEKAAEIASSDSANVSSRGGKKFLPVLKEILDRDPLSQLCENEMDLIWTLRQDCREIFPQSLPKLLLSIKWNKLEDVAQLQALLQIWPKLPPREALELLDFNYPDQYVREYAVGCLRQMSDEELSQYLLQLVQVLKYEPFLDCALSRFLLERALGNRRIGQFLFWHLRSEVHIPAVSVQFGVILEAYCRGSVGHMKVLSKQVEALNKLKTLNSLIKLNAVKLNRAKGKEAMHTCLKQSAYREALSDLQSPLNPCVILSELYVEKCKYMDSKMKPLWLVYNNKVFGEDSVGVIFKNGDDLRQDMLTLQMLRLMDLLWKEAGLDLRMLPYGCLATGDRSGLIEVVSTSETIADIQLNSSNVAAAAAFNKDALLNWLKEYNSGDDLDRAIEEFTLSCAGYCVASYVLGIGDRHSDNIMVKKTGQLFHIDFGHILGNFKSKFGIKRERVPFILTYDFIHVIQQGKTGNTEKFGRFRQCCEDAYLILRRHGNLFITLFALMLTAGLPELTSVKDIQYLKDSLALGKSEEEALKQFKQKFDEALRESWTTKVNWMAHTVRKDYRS
Sequence of PI3Kβ (P27986 whole entry partner): as the sequence (P27986 whole entry partner) above
Summary of the method: as §2

Sequence of PI3Kδ (O00329 whole entry, the tested form may be a part): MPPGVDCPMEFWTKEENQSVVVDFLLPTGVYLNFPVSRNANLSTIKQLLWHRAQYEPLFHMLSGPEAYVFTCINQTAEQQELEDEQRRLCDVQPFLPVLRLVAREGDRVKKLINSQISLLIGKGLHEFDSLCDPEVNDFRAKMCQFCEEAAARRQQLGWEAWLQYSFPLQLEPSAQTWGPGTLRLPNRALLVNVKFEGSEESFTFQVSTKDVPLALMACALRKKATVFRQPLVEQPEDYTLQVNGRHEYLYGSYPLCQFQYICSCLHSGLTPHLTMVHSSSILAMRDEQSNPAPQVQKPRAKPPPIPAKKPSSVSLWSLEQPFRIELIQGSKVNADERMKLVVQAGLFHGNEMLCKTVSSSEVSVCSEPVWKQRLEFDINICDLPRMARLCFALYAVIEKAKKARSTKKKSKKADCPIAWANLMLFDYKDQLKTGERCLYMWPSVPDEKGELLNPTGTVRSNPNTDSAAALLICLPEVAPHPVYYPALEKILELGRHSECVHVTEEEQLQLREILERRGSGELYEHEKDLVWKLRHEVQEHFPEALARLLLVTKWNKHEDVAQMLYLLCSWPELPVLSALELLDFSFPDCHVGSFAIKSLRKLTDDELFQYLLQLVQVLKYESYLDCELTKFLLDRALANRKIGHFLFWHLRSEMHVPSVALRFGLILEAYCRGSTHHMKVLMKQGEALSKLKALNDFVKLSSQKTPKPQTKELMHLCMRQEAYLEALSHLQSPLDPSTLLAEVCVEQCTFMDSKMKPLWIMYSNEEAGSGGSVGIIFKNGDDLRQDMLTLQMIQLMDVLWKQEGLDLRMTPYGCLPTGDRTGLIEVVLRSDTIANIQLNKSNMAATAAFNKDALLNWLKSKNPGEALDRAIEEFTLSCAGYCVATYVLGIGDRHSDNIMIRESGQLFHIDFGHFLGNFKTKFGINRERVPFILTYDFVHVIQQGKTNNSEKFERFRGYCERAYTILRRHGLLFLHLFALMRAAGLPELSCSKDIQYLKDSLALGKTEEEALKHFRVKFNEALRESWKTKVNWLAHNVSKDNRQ
Sequence of PI3Kδ (P27986 whole entry partner, the tested form may be a part): as the sequence (P27986 whole entry partner) above

## C[C@H](Nc1ncnc(N)c1C#Cc1ccc(F)cn1)c1nc2ccc(F)cc2c(=O)n1-c1cccc(Cl)c1 [Compound 96a, (S)-2-(1-((6-amino-5-((5-fluoropyridin-2-yl)ethynyl)pyrimidin-4-yl)amino)ethyl)-3-(3-chlorophenyl)-6-fluoroquinazolin-4(3H)-one]
[1]
  IC50: < 100 nM
[2]; bound given in uM
  IC50: > 1 µM
[3]; bound given in uM
  IC50: > 1 µM
[4]; bound given in uM
  IC50: > 1 µM

## C[C@H](Nc1ncnc(N)c1C#Cc1ccc(F)cn1)c1nc2cccc(Cl)c2c(=O)n1-c1cccc(-c2ccccc2)c1 [Compound 60a, (S)-3-([1,1′-biphenyl]-3-yl)-2-(1-((6-amino-5-((5-fluoropyridin-2-yl)ethynyl)pyrimidin-4-yl)amino)ethyl)-5-chloroquinazolin-4(3H)-one]
[1]
  IC50: < 100 nM
[2]; bound given in uM
  IC50: > 1 µM
[3]; bound given in uM
  IC50: > 1 µM
[4]; bound given in uM
  IC50: > 1 µM

## C[C@H](Nc1ncnc(N)c1C#Cc1ccc(F)cn1)c1nc2c(F)ccc(F)c2c(=O)n1-c1cc(F)cc(F)c1 [Compound 1a, (S)-2-(1-((6-amino-5-((5-fluoropyridin-2-yl)ethynyl)pyrimidin-4-yl)amino)ethyl)-3-(3,5-difluorophenyl)-5,8-difluoroquinazolin-4(3H)-one]
[1]
  IC50: < 100 nM
[2]; bound given in uM
  IC50: > 1 µM
[3]; bound given in uM
  IC50: > 1 µM
[4]; bound given in uM
  IC50: > 1 µM

## C[C@H](Nc1ncnc(N)c1C#Cc1cnccn1)c1nc2cccc(Cl)c2c(=O)n1C1C[C@H]2CC[C@@H](C1)N2C (stereo partly drawn) [Compound 124a, 2-((S)-1-((6-amino-5-(pyrazin-2-ylethynyl)pyrimidin-4-yl)amino)ethyl)-5-chloro-3-((1R,5S)-8-methyl-8-azabicyclo[3.2.1]octan-3-yl)quinazolin-4(3H)-one]
[1]
  IC50: < 100 nM
[2]; bound given in uM
  IC50: > 1 µM
[3]; bound given in uM
  IC50: > 1 µM
[4]; bound given in uM
  IC50: > 1 µM

## C[C@H](Nc1ncnc(N)c1C#Cc1ccc(F)cn1)c1nc2cccc(Cl)c2c(=O)n1-c1cc(F)cc(F)c1 (single isomer, unassigned) [Compound 9a]
[1]
  IC50: < 100 nM
[2]; bound given in uM
  IC50: > 1 µM
[3]; bound given in uM
  IC50: > 1 µM
[4]; bound given in uM
  IC50: > 1 µM

## C[C@H](O)C#Cc1c(N)ncnc1N[C@@H](C)c1nc2cccc(Cl)c2c(=O)n1-c1cc(F)cc(F)c1 [Compound 20b, 2-((S)-1-(6-amino-5-((S)-3-hydroxybut-1-ynyl)pyrimidin-4-ylamino)ethyl)-5-chloro-3-(3,5-difluorophenyl)quinazolin-4(3H)-one]
[1]
  IC50: < 100 nM
[2]; bound given in uM
  IC50: > 1 µM
[3]; bound given in uM
  IC50: > 1 µM
[4]; bound given in uM
  IC50: > 1 µM

## C[C@H](Nc1ncnc(N)c1C#Cc1ccc(F)cn1)c1nc2cccc(C(F)(F)F)c2c(=O)n1-c1ccccc1 [Compound 68a, (S)-2-(1-((6-amino-5-((5-fluoropyridin-2-yl)ethynyl)pyrimidin-4-yl)amino)ethyl)-3-phenyl-5-(trifluoromethyl)quinazolin-4(3H)-one]
[1]
  IC50: < 100 nM
[2]; bound given in uM
  IC50: > 1 µM
[3]; bound given in uM
  IC50: > 1 µM
[4]; bound given in uM
  IC50: > 1 µM

## C[C@H](Nc1ncnc(N)c1C#Cc1cnccn1)c1nc2cccc(F)c2c(=O)n1-c1cccc(F)c1 [Compound 101a, (S)-2-(1-((6-amino-5-(pyrazin-2-ylethynyl)pyrimidin-4-yl)amino)ethyl)-5-fluoro-3-(3-fluorophenyl)quinazolin-4(3H)-one]
[1]
  IC50: < 100 nM
[2]; bound given in uM
  IC50: > 1 µM
[3]; bound given in uM
  IC50: > 1 µM
[4]; bound given in uM
  IC50: > 1 µM

## C[C@H](Nc1ncnc(N)c1C#C[C@@H](C)O)c1nc2cccc(Cl)c2c(=O)n1-c1cc(F)cc(F)c1 [Compound 20a, 2-((S)-1-(6-amino-5-((R)-3-hydroxybut-1-ynyl)pyrimidin-4-ylamino)ethyl)-5-chloro-3-(3,5-difluorophenyl)quinazolin-4(3H)-one]
[1]
  IC50: < 100 nM
[2]; bound given in uM
  IC50: > 1 µM
[3]; bound given in uM
  IC50: > 1 µM
[4]; bound given in uM
  IC50: > 1 µM

## C[C@H](Nc1ncnc(N)c1C#Cc1ccc(C(F)(F)F)cn1)c1nc2cccc(Cl)c2c(=O)n1-c1ccccc1 [Compound 132a, (S)-2-(1-((6-amino-5-((5-(trifluoromethyl)pyridin-2-yl)ethynyl)pyrimidin-4-yl)amino)ethyl)-5-chloro-3-phenylquinazolin-4(3H)-one]
[1]
  IC50: < 100 nM
[2]; bound given in uM
  IC50: > 1 µM
[3]; bound given in nM
  IC50: < 0.1 µM
[4]; bound given in uM
  IC50: > 1 µM

## C[C@H](Nc1ncnc(N)c1C#CC(C)(C)O)c1nc2cccc(Cl)c2c(=O)n1-c1ccccc1 [Compound 29a, (S)-2-(1-(6-amino-5-(3-hydroxy-3-methylbut-1-ynyl)pyrimidin-4-ylamino)ethyl)-5-chloro-3-phenylquinazolin-4(3H)-one]
[1]
  IC50: < 100 nM
[2]; bound given in uM
  IC50: > 1 µM
[3]; bound given in uM
  IC50: > 1 µM
[4]; bound given in uM
  IC50: > 1 µM

## C[C@H](Nc1ncnc(N)c1C#Cc1ccc(F)cn1)c1nc2ccc(F)cc2c(=O)n1-c1ccccc1 [Compound 90a, (S)-2-(1-((6-amino-5-((5-fluoropyridin-2-yl)ethynyl)pyrimidin-4-yl)amino)ethyl)-6-fluoro-3-phenylquinazolin-4(3H)-one]
[1]
  IC50: < 100 nM
[2]; bound given in uM
  IC50: > 1 µM
[3]; bound given in uM
  IC50: > 1 µM
[4]; bound given in uM
  IC50: > 1 µM

## C[C@H](Nc1ncnc(N)c1C#Cc1ccc(F)cn1)c1nc2cccc(C(F)F)c2c(=O)n1-c1cc(F)cc(F)c1 [Compound 77a, (S)-2-(1-((6-amino-5-((5-fluoropyridin-2-yl)ethynyl)pyrimidin-4-yl)amino)ethyl)-5-(difluoromethyl)-3-(3,5-difluorophenyl)quinazolin-4(3H)-one]
[1]
  IC50: < 100 nM
[2]; bound given in uM
  IC50: > 1 µM
[3]; bound given in uM
  IC50: > 1 µM
[4]; bound given in uM
  IC50: > 1 µM

## Cc1cccc2nc([C@H](C)Nc3ncnc(N)c3C#Cc3cnccn3)n(-c3cncc(F)c3)c(=O)c12 [Compound 120a, (S)-2-(1-((6-amino-5-(pyrazin-2-ylethynyl)pyrimidin-4-yl)amino)ethyl)-3-(5-fluoropyridin-3-yl)-5-methylquinazolin-4(3H)-one]
[1]
  IC50: < 100 nM
[2]; bound given in uM
  IC50: > 1 µM
[3]; bound given in uM
  IC50: > 1 µM
[4]; bound given in uM
  IC50: > 1 µM

## COc1cc(F)cc(C#Cc2c(N)ncnc2NC(C)c2nc3c(F)ccc(F)c3c(=O)n2-c2ccccc2)c1 (stereo not drawn) [Compound 63a, 2-(1-((6-amino-5-((3-fluoro-5-methoxyphenyl)ethynyl)pyrimidin-4-yl)amino)ethyl)-5,8-difluoro-3-phenylquinazolin-4(3H)-one]
[1]
  IC50: < 100 nM
[2]; bound given in uM
  IC50: > 1 µM
[3]; bound given in uM
  IC50: > 1 µM
[4]; bound given in uM
  IC50: > 1 µM

## C[C@H](Nc1ncnc(N)c1C#Cc1cccc(N)n1)c1nc2cccc(Cl)c2c(=O)n1-c1ccccc1 [Compound 31a, (S)-2-(1-(6-amino-5-((6-aminopyridin-2-yl)ethynyl)pyrimidin-4-ylamino)ethyl)-5-chloro-3-phenylquinazolin-4(3H)-one]
[1]
  IC50: < 100 nM
[2]; bound given in nM
  IC50: < 0.1 µM
[3]; bound given in nM
  IC50: < 0.1 µM
[4]; bound given in nM
  IC50: < 0.1 µM

## C[C@H](O)C#Cc1c(N)ncnc1N[C@@H](C)c1nc2cccc(Cl)c2c(=O)n1-c1ccccc1 [Compound 19b, 2-((S)-1-(6-amino-5-((S)-3-hydroxybut-1-ynyl)pyrimidin-4-ylamino)ethyl)-5-chloro-3-phenylquinazolin-4(3H)-one]
[1]
  IC50: < 100 nM
[2]; bound given in uM
  IC50: > 1 µM
[3]; bound given in uM
  IC50: > 1 µM
[4]; bound given in uM
  IC50: > 1 µM

## C[C@H](Nc1ncnc(N)c1C#Cc1ccc(F)cn1)c1nc2c(F)cccc2c(=O)n1-c1cc(F)cc(F)c1 [Compound 2a, (S)-2-(1-((6-amino-5-((5-fluoropyridin-2-yl)ethynyl)pyrimidin-4-yl)amino)ethyl)-3-(3,5-difluorophenyl)-8-fluoroquinazolin-4(3H)-one]
[1]
  IC50: < 100 nM
[2]; bound given in uM
  IC50: > 1 µM
[3]; bound given in uM
  IC50: > 1 µM
[4]; bound given in uM
  IC50: > 1 µM

## C[C@H](Nc1ncnc(N)c1C#Cc1cnccn1)c1nc2cccc(Cl)c2c(=O)n1-c1cccc(C#N)c1 [Compound 93a, (S)-3-(2-(1-((6-amino-5-(pyrazin-2-ylethynyl)pyrimidin-4-yl)amino)ethyl)-5-chloro-4-oxoquinazolin-3(4H)-yl)benzonitrile]
[1]
  IC50: < 100 nM
[2]; bound given in uM
  IC50: > 1 µM
[3]; bound given in uM
  IC50: > 1 µM
[4]; bound given in uM
  IC50: > 1 µM

## C[C@H](Nc1ncnc(N)c1C#Cc1cc(C(F)F)ccn1)c1nc2cccc(Cl)c2c(=O)n1-c1ccccc1 [Compound 149a, (S)-2-(1-((6-amino-5-((4-(difluoromethyl)pyridin-2-yl)ethynyl)pyrimidin-4-yl)amino)ethyl)-5-chloro-3-phenylquinazolin-4(3H)-one]
[1]
  IC50: < 100 nM
[2]; bound given in uM
  IC50: > 1 µM
[3]; bound given in nM
  IC50: < 0.1 µM
[4]; bound given in nM
  IC50: < 0.1 µM

## COc1cccc(-n2c([C@H](C)Nc3ncnc(N)c3C#Cc3ncccc3F)nc3cccc(Cl)c3c2=O)c1C [81-1a]
[1]
  IC50: < 100 nM
[2]; bound given in uM
  IC50: > 1 µM
[3]; bound given in uM
  IC50: > 1 µM
[4]; bound given in uM
  IC50: > 1 µM

## C[C@H](Nc1ncnc(N)c1C#CC1CC1)c1nc2cccc(Cl)c2c(=O)n1-c1ccccc1 [Compound 24a, (S)-2-(1-(6-amino-5-(cyclopropylethynyl)pyrimidin-4-ylamino)ethyl)-5-chloro-3-phenylquinazolin-4(3H)-one]
[1]
  IC50: < 100 nM
[2]; bound given in uM
  IC50: > 1 µM
[3]; bound given in uM
  IC50: > 1 µM
[4]; bound given in uM
  IC50: > 1 µM

## C[C@H](Nc1ncnc(N)c1C#Cc1cnc(N)nc1)c1nc2cccc(Cl)c2c(=O)n1-c1ccccc1 [Compound 33a, (S)-2-(1-(6-amino-5-((2-aminopyrimidin-5-yl)ethynyl)pyrimidin-4-ylamino)ethyl)-5-chloro-3-phenylquinazolin-4(3H)-one]
[1]
  IC50: < 100 nM
[2]; bound given in nM
  IC50: < 0.1 µM
[3]; bound given in nM
  IC50: < 0.1 µM
[4]; bound given in nM
  IC50: < 0.1 µM

## C[C@H](Nc1ncnc(N)c1C#Cc1ccc(F)cn1)c1nc2cccc(Cl)c2c(=O)n1N1CCNCC1 [Compound 127a, (S)-2-(1-((6-amino-5-((5-fluoropyridin-2-yl)ethynyl)pyrimidin-4-yl)amino)ethyl)-5-chloro-3-(piperazin-1-yl)quinazolin-4(3H)-one]
[1]
  IC50: < 100 nM
[2]; bound given in uM
  IC50: > 1 µM
[3]; bound given in uM
  IC50: > 1 µM
[4]; bound given in nM
  IC50: < 0.1 µM
